Data from ChEMBL document CHEMBL1201862, “PubChem BioAssay data set” (2004).
Active and inactive are the calls of the source.

What was measured:
[1] = molecular target: T1, Peroxisome proliferator-activated receptor gamma/Nuclear receptor coactivator 2 (Homo sapiens, UniProt P37231); type: functional
[2] = molecular target: T2, Peroxisome proliferator-activated receptor gamma/Nuclear receptor coactivator 1 (Homo sapiens, UniProt P37231); type: functional
[3] = molecular target: Neuropeptide Y receptor type 2 (Homo sapiens, UniProt P49146); test: NPY-Y2 antagonist potency, selectivity check, dose response, counter-screen for NPY-Y1 antagonist project, cell-based (AID 1278); type: functional
[4] = molecular target: T3, Peroxisome proliferator-activated receptor gamma/Nuclear receptor coactivator 3 (Homo sapiens, UniProt P37231); type: functional
[5] = molecular target: Heat shock protein HSP 90-alpha (Homo sapiens, UniProt P07900); type: functional, organism-based
[6] = Vero cell cytotoxicity, dose response, cytotoxicity control for Vif-APOBEC3G degradation inhibitor project, Vero cells (AID 1117358); type: functional; details: Human immunodeficiency virus 1, Vero
[7] = molecular target: T4, Bcl-2-related protein A1 (Mus musculus, UniProt Q07440); test: Bfl-1 inhibitors, primary screen, biochemical, fluorescence polarization, FITC-Bid, mouse (AID 432)
T4 sequence (Q07440 whole entry): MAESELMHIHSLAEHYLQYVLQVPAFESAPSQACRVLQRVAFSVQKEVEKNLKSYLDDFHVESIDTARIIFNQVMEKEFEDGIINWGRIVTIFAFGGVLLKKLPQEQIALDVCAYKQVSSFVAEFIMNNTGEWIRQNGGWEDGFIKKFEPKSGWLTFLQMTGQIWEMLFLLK

[8] = molecular target: T4, Bcl-2-related protein A1; test: Bfl-1 inhibitors blocking BH3 peptide binding, confirmation, biochemical, TR-FRET, mouse Bfl-1 (AID 621);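 note: TR-FRET binding of GST-Bfl-1 to FITC-labelled Bid peptide via terbium antibody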
[9] = molecular target: Glucose-6-phosphate 1-dehydrogenase (Homo sapiens, UniProt P11413); test: human G6PD enzyme inhibitors, dose response, selectivity assay for P. falciparum G6PD inhibitor project, biochemical, fluorescence (AID 504792); type: functional
[10] = molecular target: Genome polyprotein (dengue virus type 2, UniProt P29990); test: Dengue-2 NS5 methyltransferase inhibitors, primary screen, biochemical, confirmation dose response (AID 588689); type: functional
[11] = molecular target: T5, Protein Tat (Human immunodeficiency virus type 1 group M subtype B (isolate HXB2)(HIV-1), UniProt P04608); type: functional;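 note: tat binding to TAR RNA read out by fluorescence polarization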
T5 sequence (P04608 whole entry): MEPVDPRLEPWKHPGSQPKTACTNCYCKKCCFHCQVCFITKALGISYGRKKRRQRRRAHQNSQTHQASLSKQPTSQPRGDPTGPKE

[12] = THP-1 cell cytotoxicity, dose response, cytotoxicity control for Vif-APOBEC3G degradation inhibitor project, THP-1 cells (AID 1117359); type: functional; details: Human immunodeficiency virus 1, THP-1
[13] = inhibitors of Vif binding to APOBEC3G peptide, primary screen, biochemical, TR-FRET, GST-Vif 1-94, biotin-A3G peptide, dose response retest (AID 1117319); type: functional;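 note: TR-FRET signal of purified GST-Vif binding a biotinylated A3G peptide; inhibitors lower the FRET signal by blocking Vif and A3G binding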
[14] = molecular target: E3 ubiquitin-protein ligase Mdm2 (Homo sapiens, UniProt Q00987); test: enhancers of MDM2-luciferase reporter signal, concentration-effect titration, project on inhibitors of MDM2 ubiquitin ligase, cellular assay, luminescent readout, 384-well plate format (AID 1394); type: functional;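 note: MDM2 E3 inhibitors raise luminescence so EC50 is for signal enhancement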
E3 ubiquitin-protein ligase Mdm2, sequence (Q00987 whole entry): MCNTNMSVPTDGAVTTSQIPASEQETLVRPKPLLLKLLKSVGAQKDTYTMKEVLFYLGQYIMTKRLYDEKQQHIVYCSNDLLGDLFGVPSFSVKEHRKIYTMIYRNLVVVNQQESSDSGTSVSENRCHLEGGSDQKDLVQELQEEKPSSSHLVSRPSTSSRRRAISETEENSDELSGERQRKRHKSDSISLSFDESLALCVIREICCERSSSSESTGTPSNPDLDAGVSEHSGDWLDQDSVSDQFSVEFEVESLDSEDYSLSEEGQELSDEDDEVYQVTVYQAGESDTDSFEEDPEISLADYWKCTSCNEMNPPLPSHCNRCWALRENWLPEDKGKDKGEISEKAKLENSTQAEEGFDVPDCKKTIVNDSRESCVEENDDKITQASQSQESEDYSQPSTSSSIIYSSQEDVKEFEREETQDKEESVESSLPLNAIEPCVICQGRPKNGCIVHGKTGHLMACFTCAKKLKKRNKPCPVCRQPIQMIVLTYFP

[15] = molecular target: T6, Hexokinase HKDC1 (Homo sapiens, UniProt Q2TB90); test: HKDC1 hexokinase inhibitors, dose response, biochemical, W721R variant (AID 504729); type: functional
T6 sequence (Q2TB90 whole entry): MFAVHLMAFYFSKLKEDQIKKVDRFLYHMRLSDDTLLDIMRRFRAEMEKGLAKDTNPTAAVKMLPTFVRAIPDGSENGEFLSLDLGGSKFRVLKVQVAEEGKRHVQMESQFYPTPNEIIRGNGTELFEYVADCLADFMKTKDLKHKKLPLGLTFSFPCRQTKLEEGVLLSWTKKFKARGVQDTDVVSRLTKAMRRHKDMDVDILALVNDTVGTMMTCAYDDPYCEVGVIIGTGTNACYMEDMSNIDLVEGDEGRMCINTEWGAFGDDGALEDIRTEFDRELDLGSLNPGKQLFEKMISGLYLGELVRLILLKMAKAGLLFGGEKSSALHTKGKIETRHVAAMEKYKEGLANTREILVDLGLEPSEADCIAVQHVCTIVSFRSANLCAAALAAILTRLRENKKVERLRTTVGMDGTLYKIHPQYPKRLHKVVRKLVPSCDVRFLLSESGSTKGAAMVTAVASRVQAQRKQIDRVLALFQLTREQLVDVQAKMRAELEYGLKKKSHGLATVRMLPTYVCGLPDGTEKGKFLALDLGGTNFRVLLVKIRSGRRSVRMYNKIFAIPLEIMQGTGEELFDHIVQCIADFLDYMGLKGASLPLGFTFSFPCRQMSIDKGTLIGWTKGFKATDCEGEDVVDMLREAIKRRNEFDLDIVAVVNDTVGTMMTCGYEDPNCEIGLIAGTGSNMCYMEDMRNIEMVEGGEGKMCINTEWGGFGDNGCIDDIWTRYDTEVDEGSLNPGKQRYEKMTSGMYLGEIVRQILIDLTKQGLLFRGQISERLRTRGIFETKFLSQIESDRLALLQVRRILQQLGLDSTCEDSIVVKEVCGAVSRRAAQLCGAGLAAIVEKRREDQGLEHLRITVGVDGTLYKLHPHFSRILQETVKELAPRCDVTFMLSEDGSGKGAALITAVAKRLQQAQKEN

[16] = molecular target: ELAV-like protein 1 (Homo sapiens, UniProt Q15717); test: Identify HuR specific inhibitors.; type: functional
[17] = molecular target: T7, Tyrosine-protein phosphatase non-receptor type 7 (Homo sapiens, UniProt P35236); test: inhibitors of human HePTP phosphatase, […], biochemical, absorbance, leukemia target (AID 521); type: functional
T7 sequence (P35236 whole entry): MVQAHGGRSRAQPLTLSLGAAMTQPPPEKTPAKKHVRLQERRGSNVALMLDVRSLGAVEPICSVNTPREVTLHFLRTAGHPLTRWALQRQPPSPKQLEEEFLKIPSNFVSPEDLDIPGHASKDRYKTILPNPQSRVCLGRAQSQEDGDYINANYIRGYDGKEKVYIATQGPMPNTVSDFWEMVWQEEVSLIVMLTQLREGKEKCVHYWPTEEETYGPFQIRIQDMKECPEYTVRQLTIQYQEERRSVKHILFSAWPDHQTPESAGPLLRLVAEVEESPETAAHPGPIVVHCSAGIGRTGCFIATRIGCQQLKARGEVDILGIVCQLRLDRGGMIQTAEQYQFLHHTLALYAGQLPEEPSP

[18] = molecular target: T2, Peroxisome proliferator-activated receptor gamma/Nuclear receptor coactivator 1; test: TR-FRET dose response biochemical High Throughput Screening assay for agonists of the steroid receptor coactivator 1 (SRC-1) recruitment by the peroxisome proliferator-activated receptor gamma (PPAR gamma): non-selective agonists. [Related pubchem assays (depositor defined):AID1300, AID1808, AID504735, AID631]; type: protein assay
[19] = molecular target: T3, Peroxisome proliferator-activated receptor gamma/Nuclear receptor coactivator 3; test: TR-FRET dose response biochemical High Throughput Screening assay for agonists of the steroid receptor coactivator 3 (SRC-3) recruitment by the peroxisome proliferator-activated receptor gamma (PPAR gamma): non-selective agonists. [Related pubchem assays: 1301 (Confirmation screen.), 1048 (Primary screen.)]; type: functional
[20] = cytotoxicity in HPDE-C7 cells, cell-based, fluorescence, HTS (AID 430); type: functional; details: Homo sapiens
[21] = M. tuberculosis growth inhibition, HTS (AID 449762); type: functional
[22] = microbe, parasite or virus in culture; type: functional; details: Mycobacterium tuberculosis
[23] = cytotoxicity in KRAS-transformed pancreatic duct cells, primary screen, cell-based, fluorescence, HTS (AID 431); type: functional; details: Homo sapiens;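 note: cell line used: HPDE-C7K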
[24] = molecular target: T1, Peroxisome proliferator-activated receptor gamma/Nuclear receptor coactivator 2; test: TR-FRET dose response biochemical High Throughput Screening assay for agonists of the steroid receptor coactivator 2 (SRC-2) recruitment by the peroxisome proliferator-activated receptor gamma (PPAR gamma): non-selective agonists. [Related pubchem assays: 1297, 1032 ]; type: functional
[25] = molecular target: T8, Replicative DNA helicase DnaB (Mycobacterium tuberculosis, UniProt P9WMR3); test: DnaB intein splicing inhibitors, dose response, biochemical, cell-free fluorescence (AID 449749); type: functional
T8 sequence (P9WMR3 whole entry): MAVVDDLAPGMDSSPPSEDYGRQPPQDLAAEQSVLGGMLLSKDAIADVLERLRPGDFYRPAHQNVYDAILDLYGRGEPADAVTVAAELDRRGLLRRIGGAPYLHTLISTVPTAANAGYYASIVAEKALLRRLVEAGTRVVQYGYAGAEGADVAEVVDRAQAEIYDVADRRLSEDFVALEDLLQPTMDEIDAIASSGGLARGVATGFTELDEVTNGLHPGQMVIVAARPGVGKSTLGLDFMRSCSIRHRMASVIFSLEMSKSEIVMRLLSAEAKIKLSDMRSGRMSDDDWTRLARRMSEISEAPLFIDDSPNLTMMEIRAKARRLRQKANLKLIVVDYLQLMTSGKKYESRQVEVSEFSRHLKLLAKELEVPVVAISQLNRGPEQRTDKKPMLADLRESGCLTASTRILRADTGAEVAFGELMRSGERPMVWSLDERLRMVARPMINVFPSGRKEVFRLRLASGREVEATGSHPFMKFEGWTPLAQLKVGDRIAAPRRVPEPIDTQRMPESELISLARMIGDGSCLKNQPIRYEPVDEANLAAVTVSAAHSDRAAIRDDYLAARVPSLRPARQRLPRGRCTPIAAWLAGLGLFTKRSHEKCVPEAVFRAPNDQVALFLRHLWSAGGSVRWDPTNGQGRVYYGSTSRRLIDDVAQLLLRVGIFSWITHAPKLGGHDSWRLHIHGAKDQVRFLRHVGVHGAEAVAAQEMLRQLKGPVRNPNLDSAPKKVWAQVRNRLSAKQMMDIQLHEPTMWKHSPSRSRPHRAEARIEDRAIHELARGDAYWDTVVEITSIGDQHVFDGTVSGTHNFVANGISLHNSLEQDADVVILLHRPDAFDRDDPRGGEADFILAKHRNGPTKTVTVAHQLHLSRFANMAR

[26] = molecular target: T9, Protein RecA (Mycobacterium tuberculosis, UniProt P9WHJ3); test: Fluorescence Cell-Free Homogeneous Dose Retest to Identify Inhibitors of RecA-Intein Splicing Activity. [Related pubchem assays (depositor defined):AID2097, AID2223, AID489010, AID492950]; type: functional
T9 sequence (P9WHJ3 whole entry): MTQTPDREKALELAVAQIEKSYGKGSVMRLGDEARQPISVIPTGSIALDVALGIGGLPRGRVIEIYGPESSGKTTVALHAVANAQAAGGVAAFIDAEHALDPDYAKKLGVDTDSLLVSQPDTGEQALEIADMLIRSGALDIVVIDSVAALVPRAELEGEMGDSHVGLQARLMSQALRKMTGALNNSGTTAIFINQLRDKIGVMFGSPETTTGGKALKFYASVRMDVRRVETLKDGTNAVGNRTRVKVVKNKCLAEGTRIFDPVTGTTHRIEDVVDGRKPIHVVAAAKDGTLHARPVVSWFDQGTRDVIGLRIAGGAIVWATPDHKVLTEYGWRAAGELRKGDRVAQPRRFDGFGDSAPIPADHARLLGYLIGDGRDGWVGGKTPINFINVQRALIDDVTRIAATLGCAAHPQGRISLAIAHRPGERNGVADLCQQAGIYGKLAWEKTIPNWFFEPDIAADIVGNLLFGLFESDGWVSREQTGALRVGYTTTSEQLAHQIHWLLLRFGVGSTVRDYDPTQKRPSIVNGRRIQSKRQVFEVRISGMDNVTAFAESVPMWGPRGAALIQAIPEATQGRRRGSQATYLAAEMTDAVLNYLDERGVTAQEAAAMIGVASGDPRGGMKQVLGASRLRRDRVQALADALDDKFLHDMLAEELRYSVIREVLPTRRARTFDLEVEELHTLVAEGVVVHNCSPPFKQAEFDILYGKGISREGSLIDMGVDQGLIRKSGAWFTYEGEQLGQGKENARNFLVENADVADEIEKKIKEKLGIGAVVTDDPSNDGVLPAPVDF

[27] = molecular target: T10, Fatty acid synthase (Homo sapiens, UniProt P49327); test: FAS thioesterase domain inhibitors, dose response, biochemical, endpoint fluorescence intensity, uHTS hits (AID 624327); type: functional;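 note: fluorescence from hydrolysis of an O-methyl fluorescein acyl ester substrate by the enzyme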
T10 sequence (P49327 whole entry, the tested form may be a part): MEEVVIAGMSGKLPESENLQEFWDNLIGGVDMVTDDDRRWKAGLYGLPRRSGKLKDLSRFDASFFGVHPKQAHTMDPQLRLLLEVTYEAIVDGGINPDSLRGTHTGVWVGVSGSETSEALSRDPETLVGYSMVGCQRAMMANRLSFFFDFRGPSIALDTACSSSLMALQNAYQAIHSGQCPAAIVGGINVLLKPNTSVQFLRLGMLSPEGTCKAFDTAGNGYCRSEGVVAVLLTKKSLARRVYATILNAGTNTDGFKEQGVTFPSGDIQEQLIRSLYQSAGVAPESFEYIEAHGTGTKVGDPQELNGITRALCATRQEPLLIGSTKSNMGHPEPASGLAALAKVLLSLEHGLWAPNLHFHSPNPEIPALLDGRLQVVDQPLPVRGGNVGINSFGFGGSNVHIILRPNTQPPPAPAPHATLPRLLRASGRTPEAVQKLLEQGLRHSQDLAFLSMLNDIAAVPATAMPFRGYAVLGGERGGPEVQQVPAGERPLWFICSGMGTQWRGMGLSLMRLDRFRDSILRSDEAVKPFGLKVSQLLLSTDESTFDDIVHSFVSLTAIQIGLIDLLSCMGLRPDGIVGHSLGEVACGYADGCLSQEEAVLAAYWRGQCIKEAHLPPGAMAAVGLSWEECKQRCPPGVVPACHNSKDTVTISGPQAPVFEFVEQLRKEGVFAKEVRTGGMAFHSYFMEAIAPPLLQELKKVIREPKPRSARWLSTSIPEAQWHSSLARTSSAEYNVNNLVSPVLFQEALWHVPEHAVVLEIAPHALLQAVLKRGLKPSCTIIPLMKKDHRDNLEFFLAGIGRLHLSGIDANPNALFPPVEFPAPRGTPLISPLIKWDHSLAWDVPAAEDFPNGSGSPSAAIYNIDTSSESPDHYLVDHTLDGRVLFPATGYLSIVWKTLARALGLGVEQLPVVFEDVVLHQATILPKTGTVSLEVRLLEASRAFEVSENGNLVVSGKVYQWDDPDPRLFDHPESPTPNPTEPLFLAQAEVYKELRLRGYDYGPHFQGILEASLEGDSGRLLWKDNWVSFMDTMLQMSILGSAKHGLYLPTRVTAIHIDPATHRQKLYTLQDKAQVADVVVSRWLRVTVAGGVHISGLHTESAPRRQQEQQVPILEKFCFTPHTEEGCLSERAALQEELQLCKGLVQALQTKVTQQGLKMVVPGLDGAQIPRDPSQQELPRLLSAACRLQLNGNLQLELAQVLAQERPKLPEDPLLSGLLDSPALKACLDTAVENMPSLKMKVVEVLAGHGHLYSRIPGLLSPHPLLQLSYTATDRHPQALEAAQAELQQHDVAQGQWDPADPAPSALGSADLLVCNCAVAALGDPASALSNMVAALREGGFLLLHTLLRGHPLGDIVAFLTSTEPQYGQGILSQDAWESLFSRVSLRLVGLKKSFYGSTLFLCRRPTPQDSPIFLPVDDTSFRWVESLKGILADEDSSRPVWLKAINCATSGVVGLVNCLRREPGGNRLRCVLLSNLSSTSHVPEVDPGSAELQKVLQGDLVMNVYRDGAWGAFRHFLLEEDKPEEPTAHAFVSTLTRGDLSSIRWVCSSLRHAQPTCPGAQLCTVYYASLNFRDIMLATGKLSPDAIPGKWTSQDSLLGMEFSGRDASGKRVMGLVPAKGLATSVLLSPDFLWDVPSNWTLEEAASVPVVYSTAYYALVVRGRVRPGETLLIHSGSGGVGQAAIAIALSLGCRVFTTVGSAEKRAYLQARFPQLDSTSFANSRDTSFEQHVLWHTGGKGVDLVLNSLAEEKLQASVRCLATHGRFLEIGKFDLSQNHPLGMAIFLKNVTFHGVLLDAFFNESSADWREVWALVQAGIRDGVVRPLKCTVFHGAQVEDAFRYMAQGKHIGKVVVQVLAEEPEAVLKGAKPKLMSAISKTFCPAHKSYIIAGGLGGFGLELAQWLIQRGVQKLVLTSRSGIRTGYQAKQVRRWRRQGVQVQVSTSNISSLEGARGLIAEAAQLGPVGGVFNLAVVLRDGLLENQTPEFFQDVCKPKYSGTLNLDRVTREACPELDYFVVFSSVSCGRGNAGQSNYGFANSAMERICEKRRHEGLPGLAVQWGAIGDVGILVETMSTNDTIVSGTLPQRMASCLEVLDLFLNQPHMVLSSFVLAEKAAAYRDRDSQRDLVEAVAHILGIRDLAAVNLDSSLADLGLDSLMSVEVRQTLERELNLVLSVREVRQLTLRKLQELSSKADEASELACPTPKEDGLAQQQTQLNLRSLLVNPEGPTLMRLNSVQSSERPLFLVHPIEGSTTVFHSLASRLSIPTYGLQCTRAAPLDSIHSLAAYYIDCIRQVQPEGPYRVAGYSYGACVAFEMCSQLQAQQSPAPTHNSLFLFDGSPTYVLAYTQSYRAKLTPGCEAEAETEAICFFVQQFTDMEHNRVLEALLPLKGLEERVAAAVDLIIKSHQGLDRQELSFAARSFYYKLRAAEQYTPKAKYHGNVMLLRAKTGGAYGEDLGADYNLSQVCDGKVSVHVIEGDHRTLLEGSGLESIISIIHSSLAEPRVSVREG

[28] = molecular target: T10, Fatty acid synthase; test: FAS thioesterase domain inhibitors, dose response, biochemical, kinetic fluorescence intensity (AID 624326); type: functional;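 note: rate of fluorescence rise from hydrolysis of a fluorogenic O-methyl fluorescein ester substrate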

T2 sequence (P37231 whole entry): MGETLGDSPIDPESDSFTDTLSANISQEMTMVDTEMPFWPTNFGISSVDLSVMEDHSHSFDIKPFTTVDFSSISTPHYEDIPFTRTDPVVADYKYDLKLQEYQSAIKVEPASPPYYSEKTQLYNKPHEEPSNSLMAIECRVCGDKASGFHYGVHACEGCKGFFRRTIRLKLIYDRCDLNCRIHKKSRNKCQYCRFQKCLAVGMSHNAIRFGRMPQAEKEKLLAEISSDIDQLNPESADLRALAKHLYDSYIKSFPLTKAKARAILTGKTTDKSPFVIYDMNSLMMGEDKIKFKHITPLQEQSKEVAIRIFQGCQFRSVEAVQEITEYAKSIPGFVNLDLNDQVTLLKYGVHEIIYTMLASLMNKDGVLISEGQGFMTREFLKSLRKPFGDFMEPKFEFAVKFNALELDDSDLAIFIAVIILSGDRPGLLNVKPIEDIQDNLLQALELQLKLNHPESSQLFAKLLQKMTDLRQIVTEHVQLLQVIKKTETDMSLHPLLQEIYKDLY
T2 sequence (Q15788 whole entry, further chain): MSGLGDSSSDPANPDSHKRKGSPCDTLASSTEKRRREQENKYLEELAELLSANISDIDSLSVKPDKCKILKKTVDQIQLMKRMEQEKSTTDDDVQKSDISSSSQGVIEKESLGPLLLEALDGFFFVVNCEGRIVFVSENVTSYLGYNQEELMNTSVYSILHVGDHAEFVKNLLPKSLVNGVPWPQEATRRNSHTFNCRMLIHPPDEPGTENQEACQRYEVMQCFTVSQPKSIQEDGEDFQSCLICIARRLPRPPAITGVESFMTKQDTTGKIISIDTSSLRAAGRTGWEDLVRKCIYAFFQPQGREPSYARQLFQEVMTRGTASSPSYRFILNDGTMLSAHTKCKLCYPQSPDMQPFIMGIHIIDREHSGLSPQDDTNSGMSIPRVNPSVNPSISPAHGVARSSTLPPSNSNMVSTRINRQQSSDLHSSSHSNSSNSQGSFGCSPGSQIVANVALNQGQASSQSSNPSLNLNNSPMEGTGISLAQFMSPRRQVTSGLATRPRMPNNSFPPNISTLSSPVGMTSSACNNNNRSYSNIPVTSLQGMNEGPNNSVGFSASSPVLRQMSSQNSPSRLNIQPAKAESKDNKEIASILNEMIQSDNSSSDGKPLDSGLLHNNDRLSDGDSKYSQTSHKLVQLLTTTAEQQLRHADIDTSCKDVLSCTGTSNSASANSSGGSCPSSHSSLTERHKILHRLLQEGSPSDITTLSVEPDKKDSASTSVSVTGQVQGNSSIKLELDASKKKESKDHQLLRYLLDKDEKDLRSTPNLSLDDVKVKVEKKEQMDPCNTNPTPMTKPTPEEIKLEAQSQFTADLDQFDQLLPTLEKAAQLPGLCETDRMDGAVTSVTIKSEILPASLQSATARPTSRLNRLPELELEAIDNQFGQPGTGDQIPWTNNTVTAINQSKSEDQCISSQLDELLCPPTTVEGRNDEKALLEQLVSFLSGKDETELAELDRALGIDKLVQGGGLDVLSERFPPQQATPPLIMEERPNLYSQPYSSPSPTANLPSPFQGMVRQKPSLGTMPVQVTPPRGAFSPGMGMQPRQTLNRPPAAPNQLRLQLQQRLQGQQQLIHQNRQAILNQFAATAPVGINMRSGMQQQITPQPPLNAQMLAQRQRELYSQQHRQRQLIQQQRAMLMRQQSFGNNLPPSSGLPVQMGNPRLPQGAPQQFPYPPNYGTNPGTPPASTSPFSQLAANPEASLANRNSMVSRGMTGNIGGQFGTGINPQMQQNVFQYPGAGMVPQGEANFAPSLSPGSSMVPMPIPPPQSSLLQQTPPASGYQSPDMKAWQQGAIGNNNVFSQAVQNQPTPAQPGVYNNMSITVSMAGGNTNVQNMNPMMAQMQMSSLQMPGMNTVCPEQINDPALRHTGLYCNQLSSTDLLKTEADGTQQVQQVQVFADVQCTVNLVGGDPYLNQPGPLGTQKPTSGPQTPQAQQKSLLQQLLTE

SMILES: Cn1ccnc1C1CCCCN1Cc1nc(-c2ccc3c(c2)OCO3)no1 (stereo not drawn)
- EC50 [1]: > 79.4 µM (not active)
- EC50 [2]: > 79.4 µM (not active)
- IC50 [3]: > 35 µM (not active)
- EC50 [4]: > 79.4 µM (not active)

SMILES: CCCCCCC(=O)N(O)C1CC(=O)N(c2ccc(Br)cc2)C1=O (stereo not drawn)
- AC50 [5]: 3.17 µM (active)
- CC50 [6]: > 40 µM (active)

SMILES: COc1ccc(-c2nnc3sc(-c4c(OC)cccc4OC)nn23)cc1
- IC50 [7]: 18.1 µM (active)
- IC50 [8]: > 100 µM (not active)

SMILES: Cc1ccc(CNc2ccc(O)cc2)cc1
- IC50 [9]: > 80 µM (inactive)
- IC50 [10]: 92.5 µM (active)
- IC50 [11]: 25.5 µM (inconclusive)
- CC50 [12]: > 40 µM (active)
- IC50 [13]: > 50.9 µM (active)

SMILES: CCn1c(=O)n(CC(=O)Nc2cc(OC)c(OC)c(OC)c2)c(=O)c2ccccc21
- EC50 [14]: 13.2 µM (not active)

SMILES: COCC(=O)OC1CCn2c1nc1c2C(=O)C(C)=C(NC(C)=O)C1=O (stereo not drawn)
- IC50 [15]: 2.18 µM (active)
- IC50 [16]: 17.4 µM (inactive)

SMILES: O=C(CCCn1c(=O)[nH]c2cc(Cl)ccc2c1=O)NCCN1CCN(c2ccccc2)CC1
- IC50 [17]: > 100 µM (not active)

SMILES: O=C(Sc1nnc(-c2ccccc2)o1)N1c2ccccc2Sc2ccccc21
- EC50 [18]: 34.9 µM (inactive)
- EC50 [19]: > 79.4 µM (not active)
- EC50 [20]: 5.48 µM (active)
- IC50 [21]: > 100 µM (active)
- CC50 [22]: > 40 µM (active)
- EC50 [23]: 6.64 µM (active)
- EC50 [24]: 20.8 µM (not active)
- AC50 [25]: 1.25 µM (active)
- EC50 [26]: 0.804 µM (active)
- IC50 [27]: 10.4 µM (active)
- IC50 [28]: 16.3 µM (active)
